Laboratory results taken from ChEMBL document CHEMBL1201862, “PubChem BioAssay data set” (2004).
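Cultured in 96-well plates, cells were exposed to test compound for 48 hours across five concentrations. GI50: concentration for 50% inhibition of growth.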 Activity calls are given as the source filed them. No stated cut-off is given here; in the data, active = GI50 up to about 1.1 µM and inactive = higher.

Tests used:
Experiment in all cases: inhibition of tumour cell growth, NCI panel, 48 h
786-0 = test system: 786-0
A549 = test system: A549
BT-549 = test system: BT-549
CAKI-1 = test system: CAKI-1
DU-145 = test system: DU-145
HL-60 = test system: HL-60
Hs-578T = test system: Hs-578T
MOLT-4 = test system: MOLT-4
Malme-3M = test system: Malme-3M
NCI-H23 = test system: NCI-H23
OVCAR-4 = test system: OVCAR-4
OVCAR-5 = test system: OVCAR-5
SF-268 = test system: SF-268
SF-539 = test system: SF-539
SK-MEL-2 = test system: SK-MEL-2
SK-MEL-5 = test system: SK-MEL-5
SK-OV-3 = test system: SK-OV-3
SR = test system: SR
TK-10 = test system: TK-10
A498 = test system: A498

Measured: GI50

O=C(CCN1CCOCC1)Nc1ccc2sc3ccccc3c(=O)c2n1
inactive: 786-0 31.6 µM | A549 38.9 µM | BT-549 28.7 µM | CAKI-1 23.6 µM | DU-145 47 µM | HL-60 > 100 µM | Hs-578T 36.4 µM | MOLT-4 > 10 µM | Malme-3M 20.7 µM | NCI-H23 49.1 µM | OVCAR-4 61.1 µM | OVCAR-5 > 100 µM | SF-268 52.2 µM | SF-539 60.5 µM | SK-MEL-2 64 µM | SK-MEL-5 27.1 µM | SK-OV-3 47.6 µM | SR 44.3 µM | TK-10 37.4 µM

CCOC(=O)c1nc2ccccc2nc1Nc1cc(OC)c(OC)c(OC)c1
inactive: 786-0 > 100 µM | A549 > 100 µM | BT-549 > 100 µM | CAKI-1 > 100 µM | DU-145 > 100 µM | HL-60 > 100 µM | Hs-578T 92.9 µM | MOLT-4 > 100 µM | Malme-3M > 100 µM | NCI-H23 > 100 µM | OVCAR-4 > 100 µM | OVCAR-5 > 100 µM | SF-268 > 100 µM | SF-539 > 100 µM | SK-MEL-2 > 100 µM | SK-MEL-5 > 100 µM | SK-OV-3 > 100 µM | SR > 100 µM | TK-10 > 10 µM

COc1ccc(CNc2nc3cc(C(F)(F)F)ccc3nc2-c2ccccc2)cc1OC
inactive: 786-0 33.4 µM | A549 26.9 µM | BT-549 47.5 µM | CAKI-1 18 µM | DU-145 87.5 µM | HL-60 34 µM | Hs-578T 25.2 µM | MOLT-4 25.5 µM | Malme-3M 45.6 µM | NCI-H23 20.8 µM | OVCAR-4 43.1 µM | OVCAR-5 71.1 µM | SF-268 62.8 µM | SF-539 45.9 µM | SK-MEL-2 68.9 µM | SK-MEL-5 17.9 µM | SK-OV-3 > 100 µM | SR 15.3 µM | TK-10 53.2 µM

CC1=C(\C=C/C(C)=C/C=C/C(C)=C/C=C/C=C(C)\C=C\C=C(C)/C=C/C2=C(C)CCCC2(C)C)C(C)(C)CCC1
inactive: 786-0 > 100 µM | A498 > 100 µM | A549 > 10 µM | BT-549 64.4 µM | DU-145 > 100 µM | Hs-578T 88.9 µM | MOLT-4 > 100 µM | Malme-3M > 100 µM | NCI-H23 34.2 µM | OVCAR-4 > 100 µM | OVCAR-5 > 100 µM | SF-268 > 100 µM | SK-MEL-2 > 100 µM | SK-MEL-5 > 100 µM | SK-OV-3 > 100 µM | TK-10 > 100 µM

COc1cc(C2SCC(=O)N2c2ccc(NC(=O)c3ccc(N4C(=O)CSC4c4cc(OC)c(OC)c(OC)c4)cc3)cc2)cc(OC)c1OC (stereo unspecified)
inactive: 786-0 70 µM | A549 > 100 µM | BT-549 56 µM | CAKI-1 > 100 µM | DU-145 > 100 µM | Hs-578T 68.1 µM | MOLT-4 34.8 µM | Malme-3M 79.1 µM | NCI-H23 49.4 µM | OVCAR-4 33 µM | OVCAR-5 95.1 µM | SF-268 81.3 µM | SF-539 42.7 µM | SK-MEL-2 91.6 µM | SK-MEL-5 46.3 µM | SK-OV-3 > 100 µM | TK-10 > 100 µM

CC(C)(C)n1c(=O)n(C(=O)C(Cl)(Cl)Cl)n(C(=O)C(Cl)(Cl)Cl)c1=O
inactive: 786-0 > 100 µM | A549 > 100 µM | BT-549 > 100 µM | CAKI-1 > 100 µM | DU-145 > 100 µM | HL-60 > 100 µM | Hs-578T > 100 µM | MOLT-4 > 100 µM | Malme-3M > 100 µM | NCI-H23 > 100 µM | OVCAR-4 > 100 µM | OVCAR-5 > 100 µM | SF-268 > 100 µM | SF-539 > 100 µM | SK-MEL-2 > 100 µM | SK-MEL-5 > 100 µM | SK-OV-3 > 100 µM | SR > 100 µM | TK-10 > 100 µM

O=C(OCc1ccccc1CN1CCOCC1)c1ccc(Br)cc1
inactive: 786-0 > 100 µM | A498 > 100 µM | A549 45.6 µM | BT-549 74.8 µM | DU-145 > 100 µM | Hs-578T 69.3 µM | Malme-3M 23.3 µM | NCI-H23 39.4 µM | OVCAR-4 43.5 µM | OVCAR-5 73.1 µM | SF-268 > 100 µM | SF-539 > 100 µM | SK-MEL-2 36 µM | SK-MEL-5 12.2 µM | SK-OV-3 > 100 µM | TK-10 > 100 µM

O=C1CCC2(CC1)Cc1ccccc1C2O (stereo unspecified)
inactive: 786-0 > 100 µM | A549 > 100 µM | BT-549 > 100 µM | CAKI-1 > 100 µM | DU-145 > 100 µM | HL-60 > 100 µM | Hs-578T > 100 µM | MOLT-4 > 100 µM | Malme-3M > 100 µM | NCI-H23 > 100 µM | OVCAR-4 > 100 µM | OVCAR-5 > 100 µM | SF-268 > 100 µM | SF-539 > 100 µM | SK-MEL-2 > 100 µM | SK-MEL-5 > 100 µM | SK-OV-3 > 100 µM | SR > 100 µM | TK-10 > 100 µM

COc1ccc(-c2cc(-c3cc(F)c(Cl)cc3Cl)on2)cc1OC
inactive: 786-0 63.8 µM | A549 30.8 µM | BT-549 33 µM | CAKI-1 45 µM | DU-145 37.1 µM | HL-60 4.48 µM | Hs-578T 67.1 µM | MOLT-4 5.82 µM | Malme-3M 45.3 µM | NCI-H23 29.9 µM | OVCAR-4 10.1 µM | OVCAR-5 > 100 µM | SF-268 34 µM | SF-539 4.61 µM | SK-MEL-2 17.1 µM | SK-MEL-5 9.51 µM | SK-OV-3 44.6 µM | SR 1.16 µM | TK-10 49.5 µM

CCCCC(C(=O)N/N=C/c1ccc([N+](=O)[O-])o1)C(=O)N/N=C/c1ccc([N+](=O)[O-])o1
inactive: 786-0 2.11 µM | A498 19.8 µM | A549 17.7 µM | BT-549 5.61 µM | CAKI-1 4.06 µM | DU-145 5.37 µM | HL-60 2.52 µM | Hs-578T 2.4 µM | MOLT-4 2.09 µM | Malme-3M 2.2 µM | NCI-H23 2.02 µM | OVCAR-4 1.74 µM | OVCAR-5 2.81 µM | SF-268 5.65 µM | SF-539 10.1 µM | SK-MEL-2 7.19 µM | SK-MEL-5 3.37 µM | SK-OV-3 21.1 µM | TK-10 2.28 µM

Nc1ccc(-c2cssc2=S)cc1
inactive: 786-0 49 µM | A549 50.6 µM | BT-549 36.1 µM | CAKI-1 37.9 µM | HL-60 18.6 µM | Hs-578T 36.3 µM | MOLT-4 1.17 µM | Malme-3M 34 µM | OVCAR-4 49.1 µM | OVCAR-5 > 100 µM | SF-268 42.7 µM | SF-539 52.8 µM | SK-MEL-2 27.1 µM | SK-MEL-5 32.8 µM | SK-OV-3 44.6 µM | SR 2.64 µM | TK-10 40.6 µM

C/C=C/CC(C(=O)OCC)(N(C)C(=O)OC(C)(C)C)S(=O)(=O)c1ccc(C)cc1 (stereo unspecified)
inactive: 786-0 > 100 µM | A498 > 100 µM | A549 85.9 µM | BT-549 > 100 µM | CAKI-1 > 100 µM | DU-145 > 100 µM | HL-60 45.3 µM | Hs-578T > 100 µM | MOLT-4 > 100 µM | Malme-3M > 100 µM | NCI-H23 > 100 µM | OVCAR-4 > 100 µM | OVCAR-5 > 100 µM | SF-268 > 100 µM | SF-539 > 100 µM | SK-MEL-2 51.6 µM | SK-MEL-5 88.7 µM | TK-10 > 100 µM

COc1ccc(N2C(=O)/C(=C/c3ccc(N(CCC#N)CCC#N)cc3)N=C2c2ccccc2)c(OC)c1
inactive: 786-0 > 100 µM | BT-549 > 100 µM | CAKI-1 > 100 µM | DU-145 > 100 µM | HL-60 30.3 µM | Hs-578T 50.6 µM | MOLT-4 28.2 µM | Malme-3M > 100 µM | NCI-H23 60.3 µM | OVCAR-4 > 100 µM | OVCAR-5 > 100 µM | SF-268 > 100 µM | SF-539 40.4 µM | SK-MEL-5 > 100 µM | SK-OV-3 > 100 µM | SR 22.4 µM | TK-10 > 100 µM

Cc1ccc(C)n1-c1ccccc1C1SCCCS1
inactive: 786-0 > 100 µM | A498 > 100 µM | A549 98.9 µM | BT-549 > 100 µM | CAKI-1 > 100 µM | DU-145 > 100 µM | HL-60 16.9 µM | Hs-578T > 100 µM | MOLT-4 > 100 µM | Malme-3M > 100 µM | NCI-H23 > 100 µM | OVCAR-4 > 100 µM | OVCAR-5 > 100 µM | SF-268 > 100 µM | SF-539 > 100 µM | SK-MEL-2 > 100 µM | SK-MEL-5 > 100 µM | SK-OV-3 > 100 µM | TK-10 > 100 µM

CN(C)c1ccc(/C=C2\N=C(c3ccccc3)N(c3nc4ccc(Sc5ccccc5)cc4[nH]3)C2=O)cc1
inactive: 786-0 42.2 µM | A498 37.6 µM | A549 41.5 µM | BT-549 34.9 µM | CAKI-1 35.4 µM | DU-145 77.4 µM | HL-60 6.61 µM | Hs-578T 35.2 µM | MOLT-4 30.2 µM | Malme-3M 99.8 µM | NCI-H23 47.1 µM | OVCAR-4 40.3 µM | OVCAR-5 41.8 µM | SF-268 43.8 µM | SK-MEL-2 20.8 µM | SK-MEL-5 32.4 µM | SK-OV-3 13.7 µM | TK-10 23.5 µM
